{
  "source": "paper PMC5218480",
  "about": "(PLoS ONE, 2017)",
  "tested_on": "MV-4-11 cells",
  "assay": "Gene expression microarray analysis (Affymetrix PrimeView) and GSEA",
  "format": "cell-based, human",
  "set-up": "RFU PODN (11730768_x_at) / Fold change /veh PODN (11730768_x_at) / RFU LINC00158 (11744669_a_at) / Fold change /veh LINC00158 (11744669_a_at) / RFU DUSP10 (11751237_a_at) / Fold change /veh DUSP10 (11751237_a_at) / RFU ID3 (11757404_x_at) / Fold change /veh ID3 (11757404_x_at) / RFU PLEKHG5 (11737974_s_at) / Fold change /veh PLEKHG5 (11737974_s_at) / RFU LRRC4B (11730491_at) / Fold change /veh LRRC4B (11730491_at) / RFU GIMAP4 (11747438_a_at) / Fold change /veh GIMAP4 (11747438_a_at) / RFU KRT8 (11758183_x_at) / Fold change /veh KRT8 (11758183_x_at) / RFU CNN1 (11734310_a_at) / Fold change /veh CNN1 (11734310_a_at) / RFU VPS37D (11726825_at) / Fold change /veh VPS37D (11726825_at) / RFU C10orf10 (11716522_x_at) / Fold change /veh C10orf10 (11716522_x_at) / RFU KIR2DL2 /// KIR2DL4 /// KIR2DL5A /// KIR2DL5B /// KIR2DS1 /// KIR2DS2 /// KIR2DS3 /// KIR2DS4 /// KIR3DL3 /// KIR3DL3 /// KIR3DS1 (11738374_at) / Fold change /veh KIR2DL2 /// KIR2DL4 /// KIR2DL5A /// KIR2DL5B /// KIR2DS1 /// KIR2DS2 /// KIR2DS3 /// KIR2DS4 /// KIR3DL3 /// KIR3DL3 /// KIR3DS1 (11738374_at) / RFU C1QL1 (11718748_at) / Fold change /veh C1QL1 (11718748_at) / RFU TMPRSS4 (11747572_a_at) / Fold change /veh TMPRSS4 (11747572_a_at) / RFU HAMP (11756126_x_at) / Fold change /veh HAMP (11756126_x_at) / RFU RNFT2 (11725882_a_at) / Fold change /veh RNFT2 (11725882_a_at) / RFU NR4A2 (11747474_a_at) / Fold change /veh NR4A2 (11747474_a_at) / RFU ABCC12 (11746883_a_at) / Fold change /veh ABCC12 (11746883_a_at) / RFU TMEM136 (11760407_x_at) / Fold change /veh TMEM136 (11760407_x_at) / RFU CLDN22 /// WWC2 (11732394_at) / Fold change /veh CLDN22 /// WWC2 (11732394_at) / RFU HLA-DPB1 (11760878_x_at) / Fold change /veh HLA-DPB1 (11760878_x_at) / RFU SPINT1 (11716480_a_at) / Fold change /veh SPINT1 (11716480_a_at) / RFU GAP43 (11754022_s_at) / Fold change /veh GAP43 (11754022_s_at) / RFU A4GNT (11735810_at) / Fold change /veh A4GNT (11735810_at) / RFU PRB3 (11715151_x_at) / Fold change /veh PRB3 (11715151_x_at) / RFU TUBB4B (11761932_at) / Fold change /veh TUBB4B (11761932_at) / RFU CAPN14 (11732068_a_at) / Fold change /veh CAPN14 (11732068_a_at) / RFU TMCC2 (11721928_a_at) / Fold change /veh TMCC2 (11721928_a_at) / RFU IRGQ (11745062_a_at) / Fold change /veh IRGQ (11745062_a_at) / RFU FAM174B (11720279_a_at) / Fold change /veh FAM174B (11720279_a_at) / RFU TMPRSS4 (11748680_a_at) / Fold change /veh TMPRSS4 (11748680_a_at) / RFU FAM212B (11763350_a_at) / Fold change /veh FAM212B (11763350_a_at) / RFU PLEKHG5 (11743358_a_at) / Fold change /veh PLEKHG5 (11743358_a_at) / RFU ZSCAN30 (11745921_a_at) / Fold change /veh ZSCAN30 (11745921_a_at) / RFU CMKLR1 (11741424_a_at) / Fold change /veh CMKLR1 (11741424_a_at) / RFU LOC101060620 /// MAPK8IP1 (11723275_at) / Fold change /veh LOC101060620 /// MAPK8IP1 (11723275_at) / RFU SPTSSB (11747773_x_at) / Fold change /veh SPTSSB (11747773_x_at) / RFU PRSS12 (11739890_at) / Fold change /veh PRSS12 (11739890_at) / RFU BIN1 (11741810_x_at) / Fold change /veh BIN1 (11741810_x_at) / RFU WNT11 (11732464_a_at) / Fold change /veh WNT11 (11732464_a_at) / RFU C10orf10 (11716521_a_at) / Fold change /veh C10orf10 (11716521_a_at) / RFU C5orf56 (11738089_at) / Fold change /veh C5orf56 (11738089_at) / RFU CYB561 (11721691_x_at) / Fold change /veh CYB561 (11721691_x_at) / RFU ANKRD19P (11752326_a_at) / Fold change /veh ANKRD19P (11752326_a_at) / RFU OR2T12 /// OR2T33 /// OR2T8 (11738714_s_at) / Fold change /veh OR2T12 /// OR2T33 /// OR2T8 (11738714_s_at) / RFU VCAN (11748164_a_at) / Fold change /veh VCAN (11748164_a_at) / RFU JSRP1 (11732532_at) / Fold change /veh JSRP1 (11732532_at) / RFU KRTAP10-11 (11738290_x_at) / Fold change /veh KRTAP10-11 (11738290_x_at) / RFU MYO3A (11730013_a_at) / Fold change /veh MYO3A (11730013_a_at) / RFU EBF3 (11725865_a_at) / Fold change /veh EBF3 (11725865_a_at) / RFU CAMK2N1 (11719241_x_at) / Fold change /veh CAMK2N1 (11719241_x_at) / RFU C5orf56 (11738088_a_at) / Fold change /veh C5orf56 (11738088_a_at) / RFU OLFML3 (11715873_a_at) / Fold change /veh OLFML3 (11715873_a_at) / RFU LOC100653217 /// NTM (11731650_a_at) / Fold change /veh LOC100653217 /// NTM (11731650_a_at) / RFU MAPK11 (11762145_a_at) / Fold change /veh MAPK11 (11762145_a_at) / RFU FIZ1 (11724087_x_at) / Fold change /veh FIZ1 (11724087_x_at) / RFU OASL (11726364_x_at) / Fold change /veh OASL (11726364_x_at) / RFU SOX15 (11748057_x_at) / Fold change /veh SOX15 (11748057_x_at) / RFU CD79A (11719716_a_at) / Fold change /veh CD79A (11719716_a_at) / RFU HIST1H1D (11736915_at) / Fold change /veh HIST1H1D (11736915_at) / RFU CASKIN2 (11723855_a_at) / Fold change /veh CASKIN2 (11723855_a_at) / RFU LOC730098 (11760151_x_at) / Fold change /veh LOC730098 (11760151_x_at) / RFU OR4N2 (11742367_at) / Fold change /veh OR4N2 (11742367_at) / RFU PRRT2 (11749266_a_at) / Fold change /veh PRRT2 (11749266_a_at) / RFU SNX32 (11753110_a_at) / Fold change /veh SNX32 (11753110_a_at) / RFU CDHR5 (11726645_a_at) / Fold change /veh CDHR5 (11726645_a_at) / RFU RCAN1 (11760418_a_at) / Fold change /veh RCAN1 (11760418_a_at) / RFU FAM167A (11723789_a_at) / Fold change /veh FAM167A (11723789_a_at) / RFU FAM26E (11764081_at) / Fold change /veh FAM26E (11764081_at) / RFU ISYNA1 (11749810_s_at) / Fold change /veh ISYNA1 (11749810_s_at) / RFU ACY1 (11761880_at) / Fold change /veh ACY1 (11761880_at) / RFU 11764098_at / Fold change /veh 11764098_at / RFU SAMD14 (11745864_x_at) / Fold change /veh SAMD14 (11745864_x_at) / RFU NPB (11741838_a_at) / Fold change /veh NPB (11741838_a_at) / RFU TMPRSS6 (11731388_a_at) / Fold change /veh TMPRSS6 (11731388_a_at) / RFU KRTAP10-2 (11738614_at) / Fold change /veh KRTAP10-2 (11738614_at) / RFU ARHGAP8 /// PRR5-ARHGAP8 (11727945_x_at) / Fold change /veh ARHGAP8 /// PRR5-ARHGAP8 (11727945_x_at) / RFU KRTAP5-7 /// NADSYN1 (11734609_at) / Fold change /veh KRTAP5-7 /// NADSYN1 (11734609_at) / RFU RASL12 (11751679_a_at) / Fold change /veh RASL12 (11751679_a_at) / RFU CDKN2B (11736163_a_at) / Fold change /veh CDKN2B (11736163_a_at) / RFU PRF1 (11729649_at) / Fold change /veh PRF1 (11729649_at) / RFU, ZNF638 /// ZNF638-IT1 / Fold change vs veh, ZNF638 /// ZNF638-IT1 / RFU, PANK3 / Fold change vs veh, PANK3 / RFU, SH3YL1 / Fold change vs veh, SH3YL1 / RFU, ZEB2 / Fold change vs veh, ZEB2 / RFU, NRIP1 / Fold change vs veh, NRIP1 / RFU, PTTG1IP / Fold change vs veh, PTTG1IP / RFU, CAPN2 / Fold change vs veh, CAPN2 / RFU, MED14 / Fold change vs veh, MED14 / RFU, SNORA58 / Fold change vs veh, SNORA58 / RFU, C1orf63 / Fold change vs veh, C1orf63 / RFU, LRRFIP1 / Fold change vs veh, LRRFIP1 / RFU, NDUFAF7 / Fold change vs veh, NDUFAF7 / RFU, SLC12A2 / Fold change vs veh, SLC12A2 / RFU, IBTK / Fold change vs veh, IBTK / RFU, ESF1 / Fold change vs veh, ESF1 / Fold change vs veh, TMEM50B / RFU, TAOK1 / Fold change vs veh, TAOK1 / RFU, ACBD3 / Fold change vs veh, ACBD3 / RFU, TMA16 / Fold change vs veh, TMA16 / RFU, RWDD3 / Fold change vs veh, RWDD3 / RFU, BCAT1 / Fold change vs veh, BCAT1 / RFU, EDEM3 / Fold change vs veh, EDEM3 / RFU, TMEM33 / Fold change vs veh, TMEM33 / RFU, WDR75 / Fold change vs veh, WDR75 / RFU, AHCTF1 / Fold change vs veh, AHCTF1 / RFU, TFRC / Fold change vs veh, TFRC / RFU, ZDHHC17 / Fold change vs veh, ZDHHC17 / RFU, NOM1 / Fold change vs veh, NOM1 / RFU, ARL8B / Fold change vs veh, ARL8B / RFU, ZBTB11 / Fold change vs veh, ZBTB11 / RFU, TAMM41 / Fold change vs veh, TAMM41 / RFU, KIAA1704 /// LOC100996395 / Fold change vs veh, KIAA1704 /// LOC100996395 / RFU, ING1 / Fold change vs veh, ING1 / RFU, TRMT61B / Fold change vs veh, TRMT61B / RFU, FUBP3 / Fold change vs veh, FUBP3 / RFU, TP53 / Fold change vs veh, TP53 / RFU, TNKS2 / Fold change vs veh, TNKS2 / RFU, ZFP14 / Fold change vs veh, ZFP14 / RFU, ACTR2 / Fold change vs veh, ACTR2 / RFU, PPP3R1 / Fold change vs veh, PPP3R1 / RFU, PIK3R1 / Fold change vs veh, PIK3R1 / RFU, HNRNPA1 / Fold change vs veh, HNRNPA1 / RFU, RNF170 / Fold change vs veh, RNF170 / RFU, ZNF28 / Fold change vs veh, ZNF28 / RFU, RNGTT / Fold change vs veh, RNGTT / RFU, OGT / Fold change vs veh, OGT / RFU, BRD1 / Fold change vs veh, BRD1 / RFU, MARS / Fold change vs veh, MARS / RFU, ZNF655 / Fold change vs veh, ZNF655 / RFU, FAHD1 / Fold change vs veh, FAHD1 / RFU, BDP1 / Fold change vs veh, BDP1 / RFU, LRRCC1 / Fold change vs veh, LRRCC1 / RFU, ARID1A / Fold change vs veh, ARID1A / RFU, ZNF146 / Fold change vs veh, ZNF146 / RFU, ZNF330 / Fold change vs veh, ZNF330 / RFU, GPN3 / Fold change vs veh, GPN3 / RFU, C9orf123 / Fold change vs veh, C9orf123 / RFU, N4BP2L2 / Fold change vs veh, N4BP2L2 / RFU, ARFIP1 / Fold change vs veh, ARFIP1 / RFU, FAM179B / Fold change vs veh, FAM179B / RFU, BCL10 / Fold change vs veh, BCL10 / RFU, UHRF1BP1L / Fold change vs veh, UHRF1BP1L / RFU, BET1 / Fold change vs veh, BET1 / RFU, CNOT2 / Fold change vs veh, CNOT2 / RFU, ZNF268 / Fold change vs veh, ZNF268 / Fold change vs veh, ZNF507 / RFU, DGCR2 / Fold change vs veh, DGCR2 / RFU, WDSUB1 / Fold change vs veh, WDSUB1 / Fold change vs veh, HSP90B1 /// MIR3652 / RFU, ADSS / Fold change vs veh, ADSS / RFU, GK / Fold change vs veh, GK / RFU, ZNF148 / Fold change vs veh, ZNF148 / RFU, TAF9 / Fold change vs veh, TAF9 / RFU, SLC1A5 / Fold change vs veh, SLC1A5 / RFU, SLMO2 / Fold change vs veh, SLMO2 / RFU, ABCC4 / Fold change vs veh, ABCC4 / RFU, LOC101060439 /// RAP1B / Fold change vs veh, LOC101060439 /// RAP1B / RFU, RFX7 / Fold change vs veh, RFX7 / RFU, GTPBP10 / Fold change vs veh, GTPBP10 / RFU, CNEP1R1 / Fold change vs veh, CNEP1R1 / RFU, BIVM-ERCC5 /// ERCC5 / Fold change vs veh, BIVM-ERCC5 /// ERCC5 / RFU, ILF3 / Fold change vs veh, ILF3 / RFU 11762660_at / Fold change /veh 11762660_at / RFU VCAN (11757783_s_at) / Fold change /veh VCAN (11757783_s_at) / RFU DDX43 (11728927_at) / Fold change /veh DDX43 (11728927_at) / RFU KRT8 (11758188_x_at) / Fold change /veh KRT8 (11758188_x_at) / RFU NKD1 (11759106_at) / Fold change /veh NKD1 (11759106_at) / RFU SRD5A1 (11742802_a_at) / Fold change /veh SRD5A1 (11742802_a_at) / RFU TPSAB1 /// TPSB2 (11721975_s_at) / Fold change /veh TPSAB1 /// TPSB2 (11721975_s_at) / RFU GSTM3 (11746129_a_at) / Fold change /veh GSTM3 (11746129_a_at) / RFU IL23R (11737362_x_at) / Fold change /veh IL23R (11737362_x_at) / RFU TMEM51 (11727254_a_at) / Fold change /veh TMEM51 (11727254_a_at) / RFU PIWIL2 (11732686_x_at) / Fold change /veh PIWIL2 (11732686_x_at) / RFU ORM1 (11744905_x_at) / Fold change /veh ORM1 (11744905_x_at) / RFU CCDC152 (11743942_at) / Fold change /veh CCDC152 (11743942_at) / RFU ECM1 (11717891_a_at) / Fold change /veh ECM1 (11717891_a_at) / RFU IL23R (11748794_a_at) / Fold change /veh IL23R (11748794_a_at) / RFU TNFAIP8L3 (11732012_x_at) / Fold change /veh TNFAIP8L3 (11732012_x_at) / RFU MBOAT4 (11741988_at) / Fold change /veh MBOAT4 (11741988_at) / RFU 11764193_at / Fold change /veh 11764193_at / RFU TMEM53 (11763286_at) / Fold change /veh TMEM53 (11763286_at) / RFU MAGEB2 (11727129_at) / Fold change /veh MAGEB2 (11727129_at) / RFU TMEM200A (11744735_a_at) / Fold change /veh TMEM200A (11744735_a_at) / RFU CCDC152 (11751479_a_at) / Fold change /veh CCDC152 (11751479_a_at) / RFU FAM211A (11726209_a_at) / Fold change /veh FAM211A (11726209_a_at) / RFU RGS16 (11746705_a_at) / Fold change /veh RGS16 (11746705_a_at) / RFU VCAN (11755009_s_at) / Fold change /veh VCAN (11755009_s_at) / RFU RHOB (11743442_s_at) / Fold change /veh RHOB (11743442_s_at) / RFU RGS16 (11720943_a_at) / Fold change /veh RGS16 (11720943_a_at) / RFU RGS16 (11720944_at) / Fold change /veh RGS16 (11720944_at) / RFU, VPS4B / Fold change vs veh, VPS4B / RFU, CREB1 / Fold change vs veh, CREB1 / RFU, DNAJC13 / Fold change vs veh, DNAJC13 / RFU, GNAQ / Fold change vs veh, GNAQ / RFU, CDK5R1 / Fold change vs veh, CDK5R1 / RFU, ZRANB3 / Fold change vs veh, ZRANB3 / RFU, CUL4A / Fold change vs veh, CUL4A / RFU, CCNY / Fold change vs veh, CCNY / RFU, UFL1 / Fold change vs veh, UFL1 / RFU, COG3 / Fold change vs veh, COG3 / RFU, DIAPH2 / Fold change vs veh, DIAPH2 / RFU, SKA2 / Fold change vs veh, SKA2 / RFU, AFF3 / Fold change vs veh, AFF3 / RFU, LMF1 / Fold change vs veh, LMF1 / RFU, IPO11 / Fold change vs veh, IPO11 / RFU, DFFB / Fold change vs veh, DFFB / RFU, FOXP1 / Fold change vs veh, FOXP1 / RFU, CARD8 / Fold change vs veh, CARD8 / RFU, STRN3 / Fold change vs veh, STRN3 / RFU, ADK / Fold change vs veh, ADK / RFU, RASSF2 / Fold change vs veh, RASSF2 / RFU, WIPF1 / Fold change vs veh, WIPF1 / RFU, LARP1B / Fold change vs veh, LARP1B / RFU, RASA1 / Fold change vs veh, RASA1 / RFU, RB1 / Fold change vs veh, RB1 / RFU, PPFIA1 / Fold change vs veh, PPFIA1 / RFU, MAT2A / Fold change vs veh, MAT2A / RFU, CCT5 / Fold change vs veh, CCT5 / RFU, WDR92 / Fold change vs veh, WDR92 / RFU, CUX1 / Fold change vs veh, CUX1 / RFU, TTC7A / Fold change vs veh, TTC7A / RFU, TMEM135 / Fold change vs veh, TMEM135 / RFU, DEPTOR / Fold change vs veh, DEPTOR / RFU, CPM / Fold change vs veh, CPM / RFU, DNAJB6 / Fold change vs veh, DNAJB6 / RFU, CACNA2D3 / Fold change vs veh, CACNA2D3 / RFU, DTX4 / Fold change vs veh, DTX4 / RFU, TFCP2 / Fold change vs veh, TFCP2 / RFU, GMCL1 /// GMCL1P1 / Fold change vs veh, GMCL1 /// GMCL1P1 / RFU, AEBP2 / Fold change vs veh, AEBP2 / RFU, SNHG1 /// SNORD22 /// SNORD25 /// SNORD26 /// SNORD27 /// SNORD28 /// SNORD29 /// SNORD31 / Fold change vs veh, SNHG1 /// SNORD22 /// SNORD25 /// SNORD26 /// SNORD27 /// SNORD28 /// SNORD29 /// SNORD31 / Fold change (Aza/veh), C12orf56 (ProbeSet 11735607_a_at) / Fold change (ACY-1035/veh), C12orf56 (ProbeSet 11735607_a_at) / Fold change (Aza/veh), FGFR1OP (ProbeSet 11751329_s_at) / Fold change (ACY-1035/veh), FGFR1OP (ProbeSet 11751329_s_at) / Fold change (Aza/veh), VPS36 (ProbeSet 11739960_a_at) / Fold change (ACY-1035/veh), VPS36 (ProbeSet 11739960_a_at) / RFU SYPL1 (11715823_x_at) / Fold change /veh SYPL1 (11715823_x_at) / RFU IGFBP7 (11715501_s_at) / Fold change /veh IGFBP7 (11715501_s_at) / RFU REEP3 (11722064_at) / Fold change /veh REEP3 (11722064_at) / RFU IGLL1 (11728026_x_at) / Fold change /veh IGLL1 (11728026_x_at): dose or concentration left out as unconfirmed",
  "conditions": "ProbeSet 11726661_s_at; LIST B",
  "data": [
    {"smiles": "Nc1ccc(-c2cccs2)cc1NC(=O)c1ccc2c(c1)cc(C1CC1)n2CCN1CCOCC1", "note": "[ACY-1035]", "values": [
      {"measurement": "RFU, GPN3", "value": 242.51, "unit": "RFU"}
    ]}
  ]
}
